Literature values as cited in article PMC9851200, “Multiparameter phenotypic screening for endogenous TFEB and TFE3 translocation identifies novel chemical series modulating lysosome function” (Autophagy, 2022).

How the values were obtained:
Parameters in all cases: method as in original PKIS2 published data
[1] = target: kinases (KINOMEscan panel) (Homo sapiens, UniProt P07333); conditions: Published KINOMEscan; ref original PKIS2 published data; cited from earlier work
[2] = target: T1, kinases (KINOMEscan panel) (Homo sapiens, UniProt P35626); conditions: GRK3; Published KINOMEscan; ref original PKIS2 published data; cited from earlier work
T1 sequence (P35626 1-688): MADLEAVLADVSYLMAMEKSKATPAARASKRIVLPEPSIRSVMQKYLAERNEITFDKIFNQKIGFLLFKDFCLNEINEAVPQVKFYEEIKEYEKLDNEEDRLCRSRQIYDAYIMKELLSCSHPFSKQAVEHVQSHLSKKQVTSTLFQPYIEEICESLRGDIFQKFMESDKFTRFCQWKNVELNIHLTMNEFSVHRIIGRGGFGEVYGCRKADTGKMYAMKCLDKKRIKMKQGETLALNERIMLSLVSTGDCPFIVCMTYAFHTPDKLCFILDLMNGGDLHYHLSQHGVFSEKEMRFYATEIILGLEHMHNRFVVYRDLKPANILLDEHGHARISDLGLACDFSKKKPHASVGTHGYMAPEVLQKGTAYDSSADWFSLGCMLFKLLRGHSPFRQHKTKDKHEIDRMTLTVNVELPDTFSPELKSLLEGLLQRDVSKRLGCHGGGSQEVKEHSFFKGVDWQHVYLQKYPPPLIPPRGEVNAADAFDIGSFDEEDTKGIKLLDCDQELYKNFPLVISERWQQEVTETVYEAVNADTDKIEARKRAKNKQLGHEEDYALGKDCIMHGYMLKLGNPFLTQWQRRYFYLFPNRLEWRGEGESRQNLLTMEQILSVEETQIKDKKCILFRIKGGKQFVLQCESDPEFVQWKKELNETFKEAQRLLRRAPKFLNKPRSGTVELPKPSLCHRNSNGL

[3] = target: kinases (KINOMEscan panel) (Homo sapiens, UniProt P42685); conditions: kinase FRK; Published KINOMEscan; ref original PKIS2 published data; cited from earlier work
Chain of kinases (KINOMEscan panel) (Homo sapiens, UniProt P42685) (P42685 whole entry): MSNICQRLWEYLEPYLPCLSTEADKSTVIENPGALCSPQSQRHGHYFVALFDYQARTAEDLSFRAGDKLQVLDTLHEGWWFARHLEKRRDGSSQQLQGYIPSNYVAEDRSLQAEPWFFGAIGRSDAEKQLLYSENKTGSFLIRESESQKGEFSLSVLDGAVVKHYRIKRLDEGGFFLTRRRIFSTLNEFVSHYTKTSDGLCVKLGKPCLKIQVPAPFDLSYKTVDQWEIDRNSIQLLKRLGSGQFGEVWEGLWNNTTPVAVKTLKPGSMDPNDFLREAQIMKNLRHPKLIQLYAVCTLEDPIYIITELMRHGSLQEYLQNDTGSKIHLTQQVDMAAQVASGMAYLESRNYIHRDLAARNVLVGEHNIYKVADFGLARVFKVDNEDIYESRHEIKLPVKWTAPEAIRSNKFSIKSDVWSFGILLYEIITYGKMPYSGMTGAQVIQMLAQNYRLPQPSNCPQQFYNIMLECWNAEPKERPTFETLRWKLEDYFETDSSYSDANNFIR

[4] = target: T2, kinases (KINOMEscan panel) (Homo sapiens, UniProt Q56UN5); conditions: Published KINOMEscan; ref original PKIS2 published data; cited from earlier work
T2 sequence (Q56UN5 1-1328): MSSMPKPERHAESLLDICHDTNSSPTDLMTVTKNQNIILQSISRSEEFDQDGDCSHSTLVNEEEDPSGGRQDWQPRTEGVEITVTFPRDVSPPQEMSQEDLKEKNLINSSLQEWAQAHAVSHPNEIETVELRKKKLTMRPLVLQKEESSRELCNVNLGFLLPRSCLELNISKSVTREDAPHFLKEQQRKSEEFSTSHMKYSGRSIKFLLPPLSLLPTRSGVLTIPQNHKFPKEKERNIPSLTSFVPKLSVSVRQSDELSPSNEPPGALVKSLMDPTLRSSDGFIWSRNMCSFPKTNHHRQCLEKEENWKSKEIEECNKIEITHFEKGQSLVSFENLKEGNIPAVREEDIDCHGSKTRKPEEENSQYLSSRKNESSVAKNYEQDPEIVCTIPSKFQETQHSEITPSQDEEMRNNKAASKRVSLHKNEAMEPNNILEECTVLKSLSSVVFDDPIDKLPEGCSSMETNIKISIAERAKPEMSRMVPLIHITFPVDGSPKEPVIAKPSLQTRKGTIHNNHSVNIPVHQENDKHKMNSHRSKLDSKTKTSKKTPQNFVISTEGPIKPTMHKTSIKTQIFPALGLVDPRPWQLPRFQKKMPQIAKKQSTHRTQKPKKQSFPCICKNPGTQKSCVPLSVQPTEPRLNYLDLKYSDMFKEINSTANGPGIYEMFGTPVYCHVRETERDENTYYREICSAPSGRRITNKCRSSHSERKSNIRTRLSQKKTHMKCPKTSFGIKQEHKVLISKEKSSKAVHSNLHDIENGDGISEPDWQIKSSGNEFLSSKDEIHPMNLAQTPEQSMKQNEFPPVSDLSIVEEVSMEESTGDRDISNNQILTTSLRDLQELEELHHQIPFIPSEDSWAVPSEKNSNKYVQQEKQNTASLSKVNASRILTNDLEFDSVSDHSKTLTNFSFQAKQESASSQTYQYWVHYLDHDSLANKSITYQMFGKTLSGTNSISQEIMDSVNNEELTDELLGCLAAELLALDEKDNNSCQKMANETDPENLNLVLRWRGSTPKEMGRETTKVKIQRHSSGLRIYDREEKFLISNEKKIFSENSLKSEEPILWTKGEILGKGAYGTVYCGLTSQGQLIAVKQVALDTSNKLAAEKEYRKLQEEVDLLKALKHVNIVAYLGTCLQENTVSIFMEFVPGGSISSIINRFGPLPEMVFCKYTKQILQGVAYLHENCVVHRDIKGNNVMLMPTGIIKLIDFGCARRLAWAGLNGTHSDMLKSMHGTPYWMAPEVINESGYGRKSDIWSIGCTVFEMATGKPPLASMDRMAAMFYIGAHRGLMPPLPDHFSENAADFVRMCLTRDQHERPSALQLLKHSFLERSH

[5] = target: T3, kinases (KINOMEscan panel) (Homo sapiens, UniProt Q9BXA7); conditions: kinase TSSK1B; Published KINOMEscan; ref original PKIS2 published data; cited from earlier work
T3 sequence (Q9BXA7 1-367): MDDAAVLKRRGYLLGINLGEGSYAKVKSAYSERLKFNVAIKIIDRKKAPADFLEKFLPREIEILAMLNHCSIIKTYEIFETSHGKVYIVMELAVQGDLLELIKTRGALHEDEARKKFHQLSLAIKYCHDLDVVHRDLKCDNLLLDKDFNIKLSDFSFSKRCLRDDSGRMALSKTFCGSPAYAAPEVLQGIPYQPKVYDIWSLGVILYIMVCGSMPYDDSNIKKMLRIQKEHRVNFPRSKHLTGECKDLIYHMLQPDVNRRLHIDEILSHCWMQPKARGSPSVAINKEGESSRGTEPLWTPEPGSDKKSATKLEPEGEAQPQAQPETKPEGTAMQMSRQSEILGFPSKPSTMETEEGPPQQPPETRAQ

[6] = target: kinases (KINOMEscan panel) (Homo sapiens, UniProt Q9P286); conditions: kinase PAK5; Published KINOMEscan; ref original PKIS2 published data; cited from earlier work
Chain of kinases (KINOMEscan panel) (Homo sapiens, UniProt Q9P286) (Q9P286 whole entry): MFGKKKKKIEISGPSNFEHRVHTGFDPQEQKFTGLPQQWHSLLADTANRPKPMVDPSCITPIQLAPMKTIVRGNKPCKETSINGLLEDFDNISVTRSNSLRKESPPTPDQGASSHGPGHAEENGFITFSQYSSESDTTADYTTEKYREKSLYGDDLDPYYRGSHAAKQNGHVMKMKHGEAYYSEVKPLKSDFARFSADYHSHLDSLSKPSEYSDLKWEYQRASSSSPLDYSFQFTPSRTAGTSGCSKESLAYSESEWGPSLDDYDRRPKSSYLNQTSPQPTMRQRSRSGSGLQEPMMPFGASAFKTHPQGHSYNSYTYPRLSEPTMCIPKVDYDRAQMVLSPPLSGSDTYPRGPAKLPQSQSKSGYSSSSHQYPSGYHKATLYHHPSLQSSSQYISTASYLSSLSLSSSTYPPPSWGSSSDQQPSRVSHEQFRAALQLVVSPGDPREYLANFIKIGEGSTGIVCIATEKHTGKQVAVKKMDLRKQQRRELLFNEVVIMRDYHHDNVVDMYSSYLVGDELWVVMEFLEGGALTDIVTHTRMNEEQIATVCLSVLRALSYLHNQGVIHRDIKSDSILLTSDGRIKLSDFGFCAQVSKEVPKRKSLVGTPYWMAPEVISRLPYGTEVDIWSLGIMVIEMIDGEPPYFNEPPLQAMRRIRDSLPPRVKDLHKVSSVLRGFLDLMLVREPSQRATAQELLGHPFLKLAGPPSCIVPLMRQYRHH

Chain of kinases (KINOMEscan panel) (Homo sapiens, UniProt P07333) (P07333 20-972): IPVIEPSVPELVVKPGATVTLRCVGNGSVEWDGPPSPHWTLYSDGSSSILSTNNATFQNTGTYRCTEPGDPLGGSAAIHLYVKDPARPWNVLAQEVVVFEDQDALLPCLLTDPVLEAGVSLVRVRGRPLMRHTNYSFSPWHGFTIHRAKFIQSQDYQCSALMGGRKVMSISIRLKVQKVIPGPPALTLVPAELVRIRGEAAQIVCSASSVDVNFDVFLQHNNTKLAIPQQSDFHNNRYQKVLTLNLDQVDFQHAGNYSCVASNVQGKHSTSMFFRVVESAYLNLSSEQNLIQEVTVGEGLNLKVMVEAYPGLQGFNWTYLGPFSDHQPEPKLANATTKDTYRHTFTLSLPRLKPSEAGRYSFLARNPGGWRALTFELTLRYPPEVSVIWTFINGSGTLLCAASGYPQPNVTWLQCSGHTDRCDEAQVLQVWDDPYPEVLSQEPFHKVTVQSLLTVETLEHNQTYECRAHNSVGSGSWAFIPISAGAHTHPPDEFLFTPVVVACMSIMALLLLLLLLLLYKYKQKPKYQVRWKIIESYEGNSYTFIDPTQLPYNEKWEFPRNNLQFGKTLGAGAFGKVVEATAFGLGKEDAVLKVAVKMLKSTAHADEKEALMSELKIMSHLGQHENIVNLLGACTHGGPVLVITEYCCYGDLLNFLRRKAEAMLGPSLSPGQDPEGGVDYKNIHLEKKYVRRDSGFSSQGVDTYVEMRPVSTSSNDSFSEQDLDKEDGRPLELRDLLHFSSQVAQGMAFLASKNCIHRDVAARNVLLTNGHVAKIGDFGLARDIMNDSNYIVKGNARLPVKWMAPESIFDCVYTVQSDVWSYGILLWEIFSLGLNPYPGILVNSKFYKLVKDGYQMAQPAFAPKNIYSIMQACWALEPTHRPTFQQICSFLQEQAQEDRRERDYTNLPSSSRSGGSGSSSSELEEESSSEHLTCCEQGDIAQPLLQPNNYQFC

Cc1cccc(-c2nc(Nc3ccncc3)c3ccccc3n2)n1 [NK215]
15: KINOMEscan FRK [3]
0: KINOMEscan CSF1R [1] | KINOMEscan CSF1R-autoinhibited [1] | KINOMEscan GRK3 [2] | KINOMEscan MAP3K19 [4] | KINOMEscan TSSK1B [5] | KINOMEscan PAK5 [6]
